± gives the expanded uncertainty stated by the source.
Conditions: Liquid, Vibrating tube method

CCCCCCCCCC [decane]
Conditions	mass density [kg/m3]
313.09 K, 1048 kPa	715.63 ± 0.56
313.09 K, 2010 kPa	716.43 ± 0.56
313.09 K, 2997 kPa	717.28 ± 0.56
313.09 K, 4060 kPa	718.18 ± 0.57
313.09 K, 5029 kPa	718.98 ± 0.57
313.09 K, 6019 kPa	719.8 ± 0.57
313.09 K, 7016 kPa	720.64 ± 0.58
313.09 K, 8050 kPa	721.47 ± 0.58
313.09 K, 9000 kPa	722.24 ± 0.58
313.09 K, 10029 kPa	723.06 ± 0.59
313.09 K, 11016 kPa	723.85 ± 0.59
313.09 K, 12012 kPa	724.63 ± 0.6
313.09 K, 13027 kPa	725.4 ± 0.6
313.09 K, 14011 kPa	726.15 ± 0.6
313.09 K, 15010 kPa	726.91 ± 0.61
313.09 K, 16030 kPa	727.65 ± 0.61
313.09 K, 17016 kPa	728.38 ± 0.62
313.09 K, 18037 kPa	729.1 ± 0.62
313.09 K, 19000 kPa	729.81 ± 0.63
313.09 K, 20019 kPa	730.5 ± 0.63
313.09 K, 21014 kPa	731.21 ± 0.63
313.09 K, 22032 kPa	731.92 ± 0.64
313.09 K, 23021 kPa	732.62 ± 0.64
313.09 K, 24016 kPa	733.33 ± 0.65
313.09 K, 25012 kPa	734.06 ± 0.65
323.03 K, 1025 kPa	707.94 ± 0.56
323.03 K, 2017 kPa	708.85 ± 0.56
323.03 K, 3015 kPa	709.76 ± 0.56
323.03 K, 4018 kPa	710.65 ± 0.57
323.03 K, 5022 kPa	711.53 ± 0.57
323.03 K, 6021 kPa	712.41 ± 0.57
323.03 K, 7018 kPa	713.31 ± 0.58
323.03 K, 8022 kPa	714.15 ± 0.58
323.03 K, 9016 kPa	715.01 ± 0.58
323.03 K, 10012 kPa	715.84 ± 0.59
323.03 K, 11022 kPa	716.67 ± 0.59
323.03 K, 12015 kPa	717.51 ± 0.6
323.03 K, 13020 kPa	718.33 ± 0.6
323.03 K, 14011 kPa	719.12 ± 0.6
323.03 K, 15010 kPa	719.9 ± 0.61
323.03 K, 16019 kPa	720.71 ± 0.61
323.03 K, 17010 kPa	721.46 ± 0.62
323.03 K, 18013 kPa	722.22 ± 0.62
323.03 K, 19033 kPa	723 ± 0.63
323.03 K, 20022 kPa	723.74 ± 0.63
323.03 K, 21014 kPa	724.45 ± 0.64
323.03 K, 22023 kPa	725.22 ± 0.64
323.03 K, 23025 kPa	725.93 ± 0.65
323.03 K, 24016 kPa	726.68 ± 0.65
323.03 K, 25021 kPa	727.42 ± 0.66
332.95 K, 1022 kPa	700.4 ± 0.56
332.95 K, 2005 kPa	701.33 ± 0.56
332.95 K, 3025 kPa	702.32 ± 0.56
332.95 K, 4025 kPa	703.25 ± 0.56
332.95 K, 5018 kPa	704.2 ± 0.57
332.95 K, 6018 kPa	705.12 ± 0.57
332.95 K, 7019 kPa	706.08 ± 0.58
332.95 K, 8023 kPa	706.96 ± 0.58
332.95 K, 9021 kPa	707.89 ± 0.58
332.95 K, 10017 kPa	708.78 ± 0.59
332.95 K, 11033 kPa	709.68 ± 0.59
332.95 K, 12023 kPa	710.54 ± 0.6
332.95 K, 13009 kPa	711.42 ± 0.6
332.95 K, 14016 kPa	712.21 ± 0.6
332.95 K, 15025 kPa	713.05 ± 0.61
332.95 K, 16011 kPa	713.87 ± 0.61
332.95 K, 17017 kPa	714.69 ± 0.62
332.95 K, 18016 kPa	715.5 ± 0.62
332.95 K, 19015 kPa	716.28 ± 0.63
332.95 K, 20029 kPa	717.09 ± 0.63
332.95 K, 21001 kPa	717.84 ± 0.64
332.95 K, 22034 kPa	718.63 ± 0.64
332.95 K, 23017 kPa	719.41 ± 0.65
332.95 K, 24023 kPa	720.18 ± 0.65
332.95 K, 25002 kPa	720.95 ± 0.66
343.8 K, 1014 kPa	692.56 ± 0.55
343.8 K, 2027 kPa	693.64 ± 0.56
343.8 K, 3016 kPa	694.64 ± 0.56
343.8 K, 4020 kPa	695.65 ± 0.56
343.8 K, 5016 kPa	696.67 ± 0.57
343.8 K, 6019 kPa	697.68 ± 0.57
343.8 K, 7026 kPa	698.66 ± 0.58
343.8 K, 8022 kPa	699.65 ± 0.58
343.8 K, 9014 kPa	700.58 ± 0.58
343.8 K, 10017 kPa	701.53 ± 0.59
343.8 K, 11022 kPa	702.48 ± 0.59
343.8 K, 12021 kPa	703.39 ± 0.6
343.8 K, 13011 kPa	704.27 ± 0.6
343.8 K, 14013 kPa	705.16 ± 0.61
343.8 K, 15025 kPa	706.05 ± 0.61
343.8 K, 16019 kPa	706.94 ± 0.61
343.8 K, 17010 kPa	707.79 ± 0.62
343.8 K, 18023 kPa	708.61 ± 0.62
343.8 K, 19030 kPa	709.47 ± 0.63
343.8 K, 20008 kPa	710.25 ± 0.64
343.8 K, 21017 kPa	711.1 ± 0.64
343.8 K, 22035 kPa	711.92 ± 0.65
343.8 K, 23004 kPa	712.73 ± 0.65
343.8 K, 24008 kPa	713.53 ± 0.66
343.8 K, 25103 kPa	714.44 ± 0.66
352.71 K, 2132 kPa	686.04 ± 0.56
352.71 K, 3053 kPa	687.07 ± 0.56
352.71 K, 4028 kPa	688.15 ± 0.56
352.71 K, 5028 kPa	689.19 ± 0.57
352.71 K, 6065 kPa	690.28 ± 0.57
352.71 K, 7007 kPa	691.26 ± 0.57
352.71 K, 8041 kPa	692.36 ± 0.58
352.71 K, 9064 kPa	693.4 ± 0.58
352.71 K, 10047 kPa	694.38 ± 0.59
352.71 K, 11019 kPa	695.38 ± 0.59
352.71 K, 12012 kPa	696.31 ± 0.6
352.71 K, 13031 kPa	697.31 ± 0.6
352.71 K, 14010 kPa	698.18 ± 0.61
352.71 K, 15014 kPa	699.14 ± 0.61
352.71 K, 16012 kPa	700.05 ± 0.62
352.71 K, 17008 kPa	700.95 ± 0.62
352.71 K, 17959 kPa	701.8 ± 0.63
352.71 K, 19020 kPa	702.7 ± 0.63
352.71 K, 20044 kPa	703.6 ± 0.64
352.71 K, 21044 kPa	704.46 ± 0.64
352.71 K, 22024 kPa	705.31 ± 0.65
352.71 K, 23009 kPa	706.13 ± 0.65
352.71 K, 24014 kPa	707 ± 0.66
352.71 K, 25000 kPa	707.86 ± 0.66
362.63 K, 2054 kPa	678.23 ± 0.55
362.63 K, 3010 kPa	679.34 ± 0.56
362.63 K, 4132 kPa	680.68 ± 0.56
362.63 K, 5020 kPa	681.68 ± 0.57
362.63 K, 6026 kPa	682.79 ± 0.57
362.63 K, 7042 kPa	683.95 ± 0.57
362.63 K, 8057 kPa	685.06 ± 0.58
362.63 K, 9014 kPa	686.08 ± 0.58
362.63 K, 10034 kPa	687.17 ± 0.59
362.63 K, 10999 kPa	688.24 ± 0.59
362.63 K, 12014 kPa	689.26 ± 0.6
362.63 K, 13025 kPa	690.26 ± 0.6
362.63 K, 13992 kPa	691.22 ± 0.61
362.63 K, 15019 kPa	692.24 ± 0.61
362.63 K, 16004 kPa	693.18 ± 0.62
362.63 K, 17008 kPa	694.11 ± 0.62
362.63 K, 18002 kPa	695.04 ± 0.63
362.63 K, 19037 kPa	696.02 ± 0.63
362.63 K, 20027 kPa	696.93 ± 0.64
362.63 K, 21030 kPa	697.8 ± 0.64
362.63 K, 22003 kPa	698.73 ± 0.65
362.63 K, 23027 kPa	699.61 ± 0.66
362.63 K, 24046 kPa	700.55 ± 0.66
362.63 K, 25011 kPa	701.39 ± 0.67

From the NIST ThermoML archive (doi:10.1021/je050020m)
